In patent publication US5232917A, “Methods, compositions, and compounds for allosteric modulation of the GABA receptor by members of the androstane and pregnane series” (priority 1991, dated 1993):
Where two headings read alike, the source gives them in different places.

Columns and labels:
[1] = biological target: GABA receptor-chloride ionophore complex (GR complex); assay: [35S]TBPS binding modulation assay; conditions: for Max. Inhib., maximal % of specifically bound [35S]-TBPS displaced: saturating concentrations of test compound
estrogen receptor = biological target: T1, estrogen receptor (Bos taurus, UniProt P49884); assay: Inhibition of 3H-estradiol binding to bovine uteral estrogen receptors; conditions: read-out: % of inhibition of 3H-estradiol binding, B, competitor 10^-6 M; 0.25 nM 3H-estradiol
T1 construct: from tissue; host or cells: bovine uterus cytosol
T1 sequence (P49884 1-596): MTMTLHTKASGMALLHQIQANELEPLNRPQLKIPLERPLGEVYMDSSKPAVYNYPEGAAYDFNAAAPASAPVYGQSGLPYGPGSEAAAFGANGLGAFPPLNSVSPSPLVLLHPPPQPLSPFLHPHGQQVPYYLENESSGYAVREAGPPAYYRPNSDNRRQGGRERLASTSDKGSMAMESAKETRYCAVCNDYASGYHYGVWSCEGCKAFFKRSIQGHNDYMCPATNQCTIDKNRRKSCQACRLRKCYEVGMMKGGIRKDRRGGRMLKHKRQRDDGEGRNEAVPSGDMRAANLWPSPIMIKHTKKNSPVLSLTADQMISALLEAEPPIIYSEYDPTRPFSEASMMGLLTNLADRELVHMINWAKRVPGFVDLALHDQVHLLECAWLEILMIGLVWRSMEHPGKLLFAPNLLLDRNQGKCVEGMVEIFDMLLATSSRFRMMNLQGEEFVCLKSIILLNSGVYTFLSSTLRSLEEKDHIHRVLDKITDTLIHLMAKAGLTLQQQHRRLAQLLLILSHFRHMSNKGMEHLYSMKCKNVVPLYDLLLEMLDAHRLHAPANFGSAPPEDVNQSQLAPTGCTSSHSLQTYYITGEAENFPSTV
Experimental: (§1) The hormonal activity of drugs described herein was further studied through testing their potential estrogenic, progestinic, mineralocorticoid and glucocorticoid activities. These activities were analyzed by monitoring the ability of the drugs to inhibit binding of the steroid hormones to their respective hormone receptors.

[2] = test system: GABA receptor complex (36Cl uptake, cerebral cortical synaptoneurosomes); assay: GABA-stimulated 36Cl uptake in rat cerebral cortical synaptoneurosomes; type: biochemical, rat (male Sprague-Dawley)
Experimental: In addition, the ability of the BZ clonazepam to modulate ^36 Cl uptake in the presence or absence of 5α-pregnandiol was evaluated.
The homogenate was diluted to a final volume of 40 mL with buffer and filtered through three layers of Nylon mesh (160 μm).
Aliquots of membrane preparation (200 μL) were preincubated at 30° C. for 10 min. The interaction was initiated by the simultaneous addition of drugs/steroids and 0.2 mL ^36 Cl (New England Nuclear Boston, Mass., 0.55 mCi/mmol, 0.8 μCi/ml) resulting in a total incubation volume of 0.4 mL. Steroids and test drugs were solubilized in dimethylsufoxide (DMSO) and added to the reaction mixture in 2 μL aliquots. An equal volume of vehicle was always included in the control reaction mixture. The mixture was gently mixed and ^36 Cl uptake terminated after 5 sec by the of 5 mL of ice cold buffer containing 100 μM picrotoxin (Sigma Chem Co.) followed immediately by rapid filtration through glass fiber filters (Whatman GF/C) under vacuum. The filters were washed twice with 5 mL of ice-cold buffer and the filter-bound radioactivity quantitated by liquid scintillation spectrophotometry. Specific uptake was calculated by subtracting the amount of ^36 Cl bound to the filters in the absence of synaptoneurosomes from that observed in their presence. Percent enhancement represents percent increase in uptake over that of basal ^36 Cl uptake. Statistical comparisons utilized the analysis of variance (ANOVA).

[3] = test system: metrazol induced convulsions; assay: Inhibition of metrazol induced convulsions (Table 2); type: in vivo, mice; conditions: Mus musculus
Experimental: Experiments were also performed to determine the physiological relevance of these interactions by measuring the ability of the compound of and used in the invention to modulate TBPS-induced convulsions in Swiss-Webster mice. […] The time to onset of myoclonus (presence of forelimb clonic activity) induced by TBPS was determined by observing each mouse for a period of 45 minutes. Significant differences between the time to onset in control mice vs. steroid-treated mice were determined by Student's t-test. […] The number of animals with tonic and/or clonic convulsions was recorded. In the maximal electroshock test, 50 mA of current at 60 Hz was delivered through corneal electrodes for 200 msec to induce tonic seizure. […] The ED50 (the dose at which the half-maximal effect occurs) was determined for each screen.
Adult male CFI mice (20-30g) were used in these studies. […] Percent protection against metrazol-induced seizures was plotted against time after administration of the compound. […] Ten to twelve mice were used per dose of test drug. […] The number of animals with tonic and/or clonic convulsions was recorded. The ability of the steroid to abolish the tonic component was defined as the endpoint. Sedative potential was determined by a rotorod test where the number of mice staying on a rotating (6 rpm) rod for ≥1 min. in each of three trials was determined.

progesterone receptor = biological target: T2, progesterone receptor (Bos taurus, UniProt F1N712); assay: Inhibition of 3H-progesterone binding to bovine uteral progesterone receptors
T2 construct: from tissue; host or cells: bovine uterus cytosol
T2 sequence (F1N712 1-914): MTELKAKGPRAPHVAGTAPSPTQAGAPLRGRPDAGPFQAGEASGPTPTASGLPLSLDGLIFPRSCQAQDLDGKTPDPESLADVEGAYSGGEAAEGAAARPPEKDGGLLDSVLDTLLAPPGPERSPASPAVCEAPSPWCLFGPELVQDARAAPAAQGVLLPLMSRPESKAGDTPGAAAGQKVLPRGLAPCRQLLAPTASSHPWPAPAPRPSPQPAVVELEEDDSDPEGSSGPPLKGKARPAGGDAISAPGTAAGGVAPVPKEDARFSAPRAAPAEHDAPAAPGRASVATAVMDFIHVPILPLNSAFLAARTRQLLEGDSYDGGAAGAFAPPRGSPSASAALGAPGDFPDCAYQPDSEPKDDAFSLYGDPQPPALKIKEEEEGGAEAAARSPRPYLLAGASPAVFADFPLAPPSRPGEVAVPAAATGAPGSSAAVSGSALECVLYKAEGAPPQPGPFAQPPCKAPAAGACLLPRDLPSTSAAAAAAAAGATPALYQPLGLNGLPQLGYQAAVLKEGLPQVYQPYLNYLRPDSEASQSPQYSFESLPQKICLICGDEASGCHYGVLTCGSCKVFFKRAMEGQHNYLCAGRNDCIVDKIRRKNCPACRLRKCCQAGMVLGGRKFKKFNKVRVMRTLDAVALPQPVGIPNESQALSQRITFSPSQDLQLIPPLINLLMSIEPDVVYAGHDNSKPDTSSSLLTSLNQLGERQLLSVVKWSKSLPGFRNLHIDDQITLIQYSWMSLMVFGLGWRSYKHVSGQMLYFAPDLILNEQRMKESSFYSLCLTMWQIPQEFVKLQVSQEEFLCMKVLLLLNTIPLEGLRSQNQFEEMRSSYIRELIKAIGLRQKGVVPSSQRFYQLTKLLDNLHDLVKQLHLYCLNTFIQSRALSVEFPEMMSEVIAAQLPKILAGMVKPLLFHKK
Experimental: as §1
For the data presented in Table 9, bovine uteri cytosol was isolated as they were for Table 7 and used for following binding to progesterone receptors by following the inhibition of ^3 H-progesterone, the natural ligand.

[4] = test system: strychnine-induced convulsions; conditions: 1982, cited from earlier work
[5] = test system: (+)bicuculline-induced seizures; design: key: NP: no protection; conditions: 1982, cited from earlier work
[6] = test system: picrotoxin-induced convulsions; design: key: NP: no protection; conditions: 1982, cited from earlier work
[7] = test system: maximal electroshock seizure; conditions: 1982, cited from earlier work
[8] = 1982, cited from earlier work
[9] = test system: metrazol-induced convulsions; design: key: NP: no protection; conditions: 1982, cited from earlier work
[10] = test system: GABA receptor-chloride ionophore complex (GR complex); assay: Dissociation kinetics of [35S]TBPS in rat cerebral cortical membranes; type: binding; conditions: alphaxalone 300 nM, 3α-OH-DHP 20 nM
[11] = test system: number of light/dark transitions (anxiety); conditions: Blumstein and Crawley, 1983; Crawley et al.; cited from earlier work
[12] = read-out: IC50, inhibition of [35S]-TBPS binding, +5 μM GABA, in the presence of 5 μM GABA
[13] = read-out: % of inhibition of 3H-progesterone binding, A, competitor 10^-5 M, 0.15 nM 3H-progesterone
[14] = read-out: % of inhibition of 3H-progesterone binding, B, competitor 10^-5 M, 0.25 nM 3H-progesterone
[15] = read-out: % of inhibition of 3H-progesterone binding, B, competitor 10^-6 M, 0.25 nM 3H-progesterone
[16] = Na pentobarbital 30 μM, 2 nM [35S]TBPS

## CC(C)(O)[C@H]1CC[C@H]2[C@@H]3CC[C@H]4C[C@H](O)CC[C@]4(C)[C@H]3CC[C@]12C [3α,20-dihydroxy-20-methyl-5α-pregnane]
[1]; [12]
  IC50: 65 nM
[1]
  Max. Inhib., maximal % of specifically bound [35S]-TBPS displaced: 45%
Estrogen receptor
  inhibition at 1 µM: 0%

## C[C@H](O)[C@H]1CC[C@H]2[C@@H]3CC[C@H]4C[C@H](O)CC[C@]4(C)[C@H]3CC[C@]12C [5α-pregnanediol, 5α-pregnan-3α,20α-diol]
[1]; [12]
  IC50: 82 nM
[1]; read-out: IC50, inhibition of [35S]-TBPS binding, No GABA, washed synaptoneurosomes, no GABA added
  IC50: 359 nM
[1]
  Max. Inhib., maximal % of specifically bound [35S]-TBPS displaced: 52%
[2]; 5α-pregnanediol (3 μM), no GABA
  % enhancement of basal 36Cl uptake: 2 ± 1%
[2]; 5α-pregnanediol at 3 μM, GABA 25 μM, FIG. 4
  maximal enhancement of GABA-stimulated 36Cl uptake above GABA alone: approximately 30%
[2]; FIG. 4
  concentration at which potentiation of GABA-stimulated 36Cl uptake reaches a plateau: 3 µM
[2]; GABA (25 μM) + 5α-pregnanediol (3 μM)
  % enhancement of basal 36Cl uptake: 162±4%
[2]; GABA (25 μM) + 5α-pregnanediol (3 μM) + clonazepam (1 μM)
  % enhancement of basal 36Cl uptake: 192 ± 16%
[2]; from 60% to this value above GABA (25 μM) alone, 3α-OH-DHP 500 nM + 5α-pregnanediol
  3α-OH-DHP potentiation of GABA-stimulated 36Cl uptake as antagonized by 5α-pregnanediol: 31%
[2]; steroid alone, no GABA
  effect on basal 36Cl uptake: no effect
[3]; iv, read-out: Anti-Metrazol ED50 (iv)
  ED50: 40 mg/kg
Estrogen receptor
  inhibition at 1 µM: 0%
Progesterone receptor; [13]
  inhibition at 10 µM: 2%
Progesterone receptor; [14]
  inhibition at 10 µM: 3%
Progesterone receptor; [15]
  inhibition at 1 µM: 1%

## C[C@]12CC[C@@H](O)C[C@H]1CC[C@@H]1[C@@H]2CC[C@]2(C)[C@@H](C(=O)CO)CC[C@@H]12 [5β-PREGNAN-3α,21-DIOL-20-ONE]
[1]; [12]
  IC50: 100 nM
[1]
  Max. Inhib., maximal % of specifically bound [35S]-TBPS displaced: 100%
[3]; inhibition of metrazol induced convulsions, read-out: Anti-Metrazol ED50
  ED50: 10 mg/kg
Estrogen receptor
  inhibition at 1 µM: 4%
Progesterone receptor; [13]
  inhibition at 10 µM: 19%
Progesterone receptor; read-out: % of inhibition of 3H-progesterone binding, A, competitor 10^-6 M, 0.15 nM 3H-progesterone
  inhibition at 1 µM: 6%
Progesterone receptor; [14]
  inhibition at 10 µM: 10%
Progesterone receptor; [15]
  inhibition at 1 µM: 2%

## CCC1(c2ccccc2)C(=O)NC(=O)NC1=O [Phenobarbital]
[4]; Swinyard & Woodhead
  ED50 STR (strychnine): 95 mg/kg
[5]; Swinyard & Woodhead
  ED50 BIC (bicuculline): 38 mg/kg
[6]; Swinyard & Woodhead
  ED50 PICRO (picrotoxin): 28 mg/kg
[7]; Swinyard & Woodhead
  ED50 MES (maximal electroshock): 22 mg/kg
[8]; Swinyard & Woodhead
  LD50: 265 mg/kg
[9]; Swinyard & Woodhead
  ED50 MTZ (metrazol): 13 mg/kg

## O=C1NC(=O)C(c2ccccc2)(c2ccccc2)N1 [Phenytoin]
[4]; at 55-100 mg/kg, Swinyard & Woodhead
  Maximum protection, STR (strychnine): 50%
[5]; Swinyard & Woodhead
  ED50 BIC (bicuculline): NP
[6]; Swinyard & Woodhead
  ED50 PICRO (picrotoxin): NP
[8]; Swinyard & Woodhead
  LD50: 230 mg/kg
[9]; Swinyard & Woodhead
  ED50 MTZ (metrazol): NP

## NC(=O)CCC/N=C(\c1ccc(Cl)cc1)c1cc(F)ccc1O [Progabide]
[4]; convulsant i.v., Worms et al.
  ED50 STR (strychnine): 75 mg/kg
[5]; convulsant i.v., Worms et al.
  ED50 BIC (bicuculline): 30 mg/kg
[6]; convulsant i.v., Worms et al.
  ED50 PICRO (picrotoxin): 105 mg/kg
[7]; Worms et al.
  ED50 MES (maximal electroshock): 75 mg/kg
[8]; Worms et al.
  LD50: 3000 mg/kg
[9]; convulsant i.v., Worms et al.
  ED50 MTZ (metrazol): 30 mg/kg

## CCCC(CCC)C(=O)O [Valproate]
[4]; Swinyard & Woodhead
  ED50 STR (strychnine): 293 mg/kg
[5]; Swinyard & Woodhead
  ED50 BIC (bicuculline): 360 mg/kg
[6]; Swinyard & Woodhead
  ED50 PICRO (picrotoxin): 387 mg/kg
[7]; Swinyard & Woodhead
  ED50 MES (maximal electroshock): 272 mg/kg
[8]; Swinyard & Woodhead
  LD50: 1105 mg/kg
[9]; Swinyard & Woodhead
  ED50 MTZ (metrazol): 149 mg/kg

## CCCC(C)C1(CC)C(=O)NC(=O)NC1=O (stereo not drawn) [pentobarbital]
[10]; Na pentobarbital 30 μM
  Total percentage of specific sites, rapid (R): 48 ± 6%
  Total percentage of specific sites, slow (S): 61 ± 6%
[10]; [16]
  K-1, rapidly dissociating component (R): 0.158 ± 0.013 min⁻¹
  K-1, slowly dissociating component (S): 0.0186 ± 0.0015 min⁻¹
  T1/2, rapidly dissociating component (R): 4.4 ± 0.3 min
  T1/2, slowly dissociating component (S): 38 ± 3 min
[10]; pentobarbital 30 μM, FIGS. 2A, 2B
  biphasic dissociation mechanism of [35S]TBPS: induces a biphasic dissociation mechanism
[11]
  effect on number of light/dark transitions (literature): increase the number of transitions
